Tested on: GA-primed murine splenocytes
Assay: ANOVA-based pattern identification method
Format: cell-based, mouse
Description: We sought to identify probes matching specific patterns of expression across experimental conditions using a technique that referred to as the ANOVA-based Pattern Identification Method.
To carry out the analysis in a general manner, we computed the 6 p-values required to do pairwise comparisons of all 4 conditions for all probes using the ANOVA1 function in MATLAB. We then identified sets of probes matching the desired pattern. In the example above, probes were identified as being only affected by PG if their 6 pairwise comparison pvalues matched the following pattern (pGA-PG<0.05, pPG-reference standard<0.05, pPG-Medium<0.05, pGAMedium>0.05, pGA-reference standard>0.05, preference standard-Medium>0.05).

## glatiramer acetate [GA]
UP IN GA AND REF ONLY
  FYB expression level: 8.25
  GNL3L expression level: 7.689
  GPC3 expression level: 5.696
  GPI1 expression level: 11.7829
  GREM2 expression level: 6.036
  GTF3C5 expression level: 5.928
  GTL7 expression level: 7.434
  H2-T23 expression level: 10.78
  H2AFZ expression level: 11.93
  HEATR3 expression level: 5.853
  HIST1H2AG expression level: 10.07
  HIST1H2AK expression level: 12.78
  HNRNPK expression level: 10.05
  IL1F10 expression level: 6.065
  INPP4B expression level: 6.314
  KLRA1 expression level: 5.834
  KRT25 expression level: 5.8
  LOC235279 expression level: 5.818
  LOC244219 expression level: 5.958
  LOC331243 expression level: 5.641
  LOC380707 expression level: 10.02
  LOC381093 expression level: 5.885
  LOC383306 expression level: 5.921
  LOC383433 expression level: 5.667
  LOC383706 expression level: 8.36
  LOC384585 expression level: 5.764
  LOC384990 expression level: 5.909
  LOC386161 expression level: 5.652
  LOC628101 expression level: 6.566
  LOC667005 expression level: 7.02
  LOC100040244 expression level: 7.257
  LOC100040854 expression level: 5.619
  LOC100041450 expression level: 6.953
  LOC100043391 expression level: 14.29
  LOC100044190 expression level: 10.67
  LOC100046320 expression level: 7.704
  LOC100047009 expression level: 6.027
  LOC100048816 expression level: 5.928
  LSG1 expression level: 7.278
  MAD2L1BP expression level: 9.971
  MIER2 expression level: 5.885
  MX2 expression level: 8.083
  MYNN expression level: 5.819
  NCDN expression level: 5.87
  NEO1 expression level: 6.159
  NPC2 expression level: 9.575
  NUDCD2 expression level: 7.102
  OLFR701 expression level: 5.738
  OS9 expression level: 9.621
  OTTMUSG00000005523 expression level: 6.96
  PARP14 expression level: 11.13
  PCDHGC5 expression level: 6.075
  PDIA2 expression level: 5.846
  PDLIM1 expression level: 9.528
  PIBF1 expression level: 6.957
  PIGN expression level: 5.83
  PJA1 expression level: 6.736
  PK3 expression level: 6.316
  PLEKHF2 expression level: 8.247
  PLXNC1 expression level: 6.506
  PPP1CB expression level: 7.717
  PPP2R5C expression level: 10.04
  PSEN2 expression level: 5.995
  PTPN1 expression level: 9.292
  PUM2 expression level: 8.717
  RAB6 expression level: 7.499
  RAB33A expression level: 6.093
  RBM14 expression level: 6.157
  RN185 expression level: 9.959
  RNF8 expression level: 6.852
  RNF19A expression level: 5.962
  RNGTT expression level: 6.302
  RPL37 expression level: 5.765
  SAMHD1 expression level: 12.05
  SCL0002368.1_75 expression level: 9.053
  SELP expression level: 6.569
  SLC30A8 expression level: 5.652
  SLCO3A1 expression level: 6.151
  SLFN9 expression level: 5.598
  SPNB2 expression level: 5.753
  STAT3 expression level: 11.07
  STIL expression level: 5.727
  TELO2 expression level: 5.873
  TMPO expression level: 8.63
  TNP2 expression level: 5.959
  TOP2A expression level: 7.085
  TOR1A expression level: 7.512
  TPM4 expression level: 7.481
  TRAPPC2 expression level: 5.833
  TRMT2A expression level: 6.694
  TSPAN14 expression level: 9.848
  TTLL4 expression level: 5.973
  UBE2Z expression level: 6.169
  USF1 expression level: 6.915
  V1RD18 expression level: 5.691
  VMN2R81 expression level: 5.992
  VMN2R89 expression level: 6.242
  VPS37B expression level: 10.56
  WAPAL expression level: 6.423
  WDR45L expression level: 7.365
  ZDHHC21 expression level: 8.562
  ZFP277 expression level: 9.951
  ZFP281 expression level: 8.974
  ZFP800 expression level: 6.783
  ZNF24 expression level: 6.171
  ZWILCH expression level: 6.29
  ZZZ3 expression level: 6.181
UP IN generic ONLY
  5YNGR1 expression: 5.954
  1200003C05RIK expression: 9.103
  1200011M11RIK expression: 6.322
  1700021P22RIK expression: 6.037
  1700029G01RIK expression: 6.738
  1700063H04RIK expression: 5.82
  2210010L05RIK expression: 5.598
  2310046A06RIK expression: 5.634
  2310051M13RIK expression: 5.609
  2600005J22RIK expression: 5.732
  2610209A20RIK expression: 6.008
  2810046M22RIK expression: 5.995
  2810453I06RIK expression: 8.506
  2900090M10RIK expression: 5.695
  3110070M22RIK expression: 6.16
  4930430K04RIK expression: 5.499
  4930432K21RIK expression: 6.593
  4930471I01RIK expression: 5.854
  4930481A15RIK expression: 5.879
  4930543G11RIK expression: 5.775
